Consider 3 compounds from paper PMC4503722, “Novel Phenotypic Outcomes Identified for a Public Collection of Approved Drugs from a Publicly Accessible Panel of Assays” (PLoS ONE, 2015).

Like-named read-outs stand apart in the source and are kept apart here.

For data set [1], the system named is DLD-1. Description: cells. In kind it is cell-based. Conditions: Homo sapiens.
For data set [2], the system named is HCT116 cells treated with a GSK3β inhibitor. Description: cells. In kind it is cell-based. As to conditions: Homo sapiens.
Data set [3] has as its system NCI-H716 cells. Description: cells. Conditions: Homo sapiens. The format is cell-based, Human.
The subject of data set [4] is INS-1E cells. Description: cells. In kind it is cell-based, rat.
The test system of data set [5] is HCT116. Description: cells. In kind it is cell-based. Conditions: Homo sapiens.
Data set [6] deals with SW480. Description: cells. The format is cell-based. As to conditions: Homo sapiens.
In data set [7] the test system is nuclear β-catenin in C2C12 cells. Description: cells. In kind it is cell-based. As to conditions: Mus musculus.
In data set [8] the test system is HeLa cells. Description: cells. In kind it is cell-based. Conditions: Homo sapiens, HeLa, read-out: CellCycle G2/M.
For data set [9] the following is noted: FAERS, ref [45], cited from earlier work; for Adjusted Z-Score: Drug A with vs without methotrexate; for # of Specific AE Occurrence With Drug A With Drug B: with methotrexate; for # of Specific AE Occurrence With Drug A Without Drug B: without methotrexate.
Data set [10] concerns RKO. Description: cells. In kind it is cell-based. Conditions: Homo sapiens, RKO.
The test system of data set [11] is panel of 7 colon cancer cell lines. Description: KRAS/Wnt synthetic lethal module: selectivity ratios across the colon cancer cell line panel (sub-modules). The format is cell-based.
Data set [12] has as its target T1, hFLT3 (Homo sapiens, UniProt P36888).
T1 construct: purchased Cerep (LANCE kinase assay platform, contract assay)
Description: Cerep LANCE kinase assay hFLT3 (S1 assay 35). The format is biochemical. Conditions: kinase assay; read-out: FLT3. For orientation: Time-resolved FRET reads energy transfer from a long-lived donor to a nearby acceptor.

Data set [13] relates to ECFC/ADSC co-culture cell nuclei number. Conditions: human.
Data set [14] concerns the target T2, hp70S6K1 (RPS6KB1) (Homo sapiens, UniProt P23443).
T2 construct: purchased Cerep (LANCE kinase assay platform, contract assay)
Description: Cerep LANCE kinase assay hp70S6K1 (S1 assay 31). In kind it is biochemical. Conditions: kinase assay; read-out: p70S6K1.

The subject of data set [15] is Colo320. Description: cells. In kind it is cell-based. Conditions: Homo sapiens.
The target of data set [16] is T3, hKDR (Homo sapiens, UniProt P35968).
T3 construct: purchased Cerep (LANCE kinase assay platform, contract assay)
Description: Cerep LANCE kinase assay hKDR (S1 assay 32). In kind it is biochemical. As to conditions: kinase assay; read-out: KDR.

In data set [17] the test system is endothelial tube formation in co-cultures of ECFCs and ADSCs treated with VEGF. Description: cells. In kind it is cell-based, human. As to conditions: Homo sapiens.
The subject of data set [18] is SNU-C1. Description: cells. In kind it is cell-based. As to conditions: Homo sapiens.
In data set [19] the target is T4, hGSK3b (Homo sapiens, UniProt P49841).
T4 construct: purchased Cerep (LANCE kinase assay platform, contract assay)
Description: Cerep LANCE kinase assay hGSK3b (S1 assay 34). In kind it is biochemical. As to conditions: kinase assay; read-out: GSK3b.

The test system of data set [20] is HT-29. Description: cells. In kind it is cell-based. As to conditions: Homo sapiens.
The target in data set [21] is T5, hJAK2 (Homo sapiens, UniProt O60674).
T5 construct: purchased Cerep (LANCE kinase assay platform, contract assay)
Description: Cerep LANCE kinase assay hJAK2 (S1 assay 33). The format is biochemical. Conditions: kinase assay; read-out: JAK2.

Data set [22] deals with SUR2/Kir6.2. As to conditions: read-out: SUR2/Kir6.2 inhibition IC50; cited from earlier work.
Data set [23] has as its system tonic K+ channel activity in INS-1E cells. Description: cells. In kind it is cell-based, rat. Conditions: Rattus norvegicus, INS-1E, read-out: K+ channel assay IC50.
[24] abbreviates: DLD-1, 72 h, read-out: DLD-1 viab. IC50.
Setting [25] is: HCT-116, 72 h, read-out: HCT-116 (GSK3β) viab. IC50.
Where [26] appears, read: NCI-H716, read-out: GLP1 sec. EC50.
[27] abbreviates: Rattus norvegicus, INS-1E, read-out: Ins. sec. EC50.
Setting [28] is: HCT-116, 72 h, read-out: HCT-116 viab. IC50.
The mark [29] stands for this setting: SW480, 72 h, read-out: SW480 viab. IC50.

T2 sequence (P23443 whole entry): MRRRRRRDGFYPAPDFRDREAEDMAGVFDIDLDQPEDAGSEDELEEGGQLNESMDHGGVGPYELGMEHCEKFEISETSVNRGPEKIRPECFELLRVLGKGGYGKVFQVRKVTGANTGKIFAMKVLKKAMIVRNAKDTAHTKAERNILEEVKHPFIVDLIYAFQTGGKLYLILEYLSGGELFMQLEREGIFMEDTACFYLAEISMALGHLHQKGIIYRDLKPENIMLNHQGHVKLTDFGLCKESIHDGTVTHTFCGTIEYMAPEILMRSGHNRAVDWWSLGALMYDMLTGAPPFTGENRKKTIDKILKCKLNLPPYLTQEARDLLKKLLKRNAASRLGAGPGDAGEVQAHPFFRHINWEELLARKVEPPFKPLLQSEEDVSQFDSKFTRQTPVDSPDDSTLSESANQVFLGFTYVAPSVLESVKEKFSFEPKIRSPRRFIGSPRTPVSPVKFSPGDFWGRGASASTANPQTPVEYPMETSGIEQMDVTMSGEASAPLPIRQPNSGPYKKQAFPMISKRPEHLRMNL
T1 sequence (P36888 27-993): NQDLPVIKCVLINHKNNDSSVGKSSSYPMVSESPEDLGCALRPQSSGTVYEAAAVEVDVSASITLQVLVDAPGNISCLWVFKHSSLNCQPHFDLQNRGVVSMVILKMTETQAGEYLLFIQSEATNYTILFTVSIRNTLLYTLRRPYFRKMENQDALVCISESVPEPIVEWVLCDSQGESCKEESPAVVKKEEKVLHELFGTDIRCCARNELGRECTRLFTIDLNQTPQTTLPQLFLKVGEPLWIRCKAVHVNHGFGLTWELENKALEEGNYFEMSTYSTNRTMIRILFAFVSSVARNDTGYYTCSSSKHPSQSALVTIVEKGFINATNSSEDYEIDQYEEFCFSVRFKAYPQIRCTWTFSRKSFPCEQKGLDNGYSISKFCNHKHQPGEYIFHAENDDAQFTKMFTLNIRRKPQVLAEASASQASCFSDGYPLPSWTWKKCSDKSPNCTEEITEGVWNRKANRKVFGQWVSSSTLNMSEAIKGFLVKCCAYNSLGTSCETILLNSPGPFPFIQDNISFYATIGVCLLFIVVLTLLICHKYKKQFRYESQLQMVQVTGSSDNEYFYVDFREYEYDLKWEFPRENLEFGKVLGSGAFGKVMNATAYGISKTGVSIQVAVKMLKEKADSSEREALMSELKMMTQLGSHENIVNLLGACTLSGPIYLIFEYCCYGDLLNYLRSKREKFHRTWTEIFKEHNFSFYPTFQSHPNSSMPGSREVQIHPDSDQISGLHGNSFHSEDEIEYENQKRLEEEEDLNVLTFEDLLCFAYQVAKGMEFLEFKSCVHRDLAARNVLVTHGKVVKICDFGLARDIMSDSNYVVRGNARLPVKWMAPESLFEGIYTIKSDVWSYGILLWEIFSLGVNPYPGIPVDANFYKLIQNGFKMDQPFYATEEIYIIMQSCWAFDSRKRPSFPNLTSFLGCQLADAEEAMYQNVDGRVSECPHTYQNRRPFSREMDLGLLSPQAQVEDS
T5 sequence (O60674 whole entry): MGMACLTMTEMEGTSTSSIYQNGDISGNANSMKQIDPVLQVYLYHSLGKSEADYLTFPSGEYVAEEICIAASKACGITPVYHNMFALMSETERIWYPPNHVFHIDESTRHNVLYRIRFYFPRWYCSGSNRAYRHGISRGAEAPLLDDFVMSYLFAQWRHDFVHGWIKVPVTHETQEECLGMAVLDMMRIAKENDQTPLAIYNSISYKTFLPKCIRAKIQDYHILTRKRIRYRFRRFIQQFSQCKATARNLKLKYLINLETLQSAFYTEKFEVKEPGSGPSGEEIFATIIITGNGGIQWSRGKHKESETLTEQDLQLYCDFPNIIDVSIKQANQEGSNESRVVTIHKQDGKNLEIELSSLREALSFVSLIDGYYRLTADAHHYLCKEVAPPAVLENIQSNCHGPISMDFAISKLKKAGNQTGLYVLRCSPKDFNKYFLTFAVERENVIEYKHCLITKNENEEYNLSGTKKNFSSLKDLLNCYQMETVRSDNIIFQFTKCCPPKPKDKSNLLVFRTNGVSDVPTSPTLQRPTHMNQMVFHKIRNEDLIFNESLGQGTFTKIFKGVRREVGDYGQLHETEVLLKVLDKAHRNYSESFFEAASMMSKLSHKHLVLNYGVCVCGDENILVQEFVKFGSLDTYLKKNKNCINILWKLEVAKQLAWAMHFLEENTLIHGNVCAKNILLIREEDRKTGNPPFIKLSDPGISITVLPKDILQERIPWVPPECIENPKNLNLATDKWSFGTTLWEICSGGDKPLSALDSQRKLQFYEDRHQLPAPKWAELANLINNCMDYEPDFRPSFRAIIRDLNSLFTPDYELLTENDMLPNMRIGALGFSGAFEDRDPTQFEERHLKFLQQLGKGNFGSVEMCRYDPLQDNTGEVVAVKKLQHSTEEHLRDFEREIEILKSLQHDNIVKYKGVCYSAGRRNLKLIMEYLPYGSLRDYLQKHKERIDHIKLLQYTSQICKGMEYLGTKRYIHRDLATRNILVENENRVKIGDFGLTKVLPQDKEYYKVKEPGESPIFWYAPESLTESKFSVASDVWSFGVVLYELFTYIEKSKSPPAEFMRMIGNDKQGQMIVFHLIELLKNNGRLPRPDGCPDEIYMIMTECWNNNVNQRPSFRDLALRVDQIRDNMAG
T4 sequence (P49841 whole entry): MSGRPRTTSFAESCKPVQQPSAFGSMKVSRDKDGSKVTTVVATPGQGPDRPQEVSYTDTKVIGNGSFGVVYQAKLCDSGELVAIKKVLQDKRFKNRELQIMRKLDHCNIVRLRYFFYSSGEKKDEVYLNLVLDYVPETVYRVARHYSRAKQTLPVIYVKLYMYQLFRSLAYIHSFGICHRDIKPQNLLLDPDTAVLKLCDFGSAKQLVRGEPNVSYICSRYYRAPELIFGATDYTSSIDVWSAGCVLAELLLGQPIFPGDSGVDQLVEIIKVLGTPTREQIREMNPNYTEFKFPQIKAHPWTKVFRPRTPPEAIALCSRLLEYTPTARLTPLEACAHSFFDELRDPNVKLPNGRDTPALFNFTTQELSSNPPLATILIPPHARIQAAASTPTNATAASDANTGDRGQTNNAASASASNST
T3 sequence (P35968 20-1356): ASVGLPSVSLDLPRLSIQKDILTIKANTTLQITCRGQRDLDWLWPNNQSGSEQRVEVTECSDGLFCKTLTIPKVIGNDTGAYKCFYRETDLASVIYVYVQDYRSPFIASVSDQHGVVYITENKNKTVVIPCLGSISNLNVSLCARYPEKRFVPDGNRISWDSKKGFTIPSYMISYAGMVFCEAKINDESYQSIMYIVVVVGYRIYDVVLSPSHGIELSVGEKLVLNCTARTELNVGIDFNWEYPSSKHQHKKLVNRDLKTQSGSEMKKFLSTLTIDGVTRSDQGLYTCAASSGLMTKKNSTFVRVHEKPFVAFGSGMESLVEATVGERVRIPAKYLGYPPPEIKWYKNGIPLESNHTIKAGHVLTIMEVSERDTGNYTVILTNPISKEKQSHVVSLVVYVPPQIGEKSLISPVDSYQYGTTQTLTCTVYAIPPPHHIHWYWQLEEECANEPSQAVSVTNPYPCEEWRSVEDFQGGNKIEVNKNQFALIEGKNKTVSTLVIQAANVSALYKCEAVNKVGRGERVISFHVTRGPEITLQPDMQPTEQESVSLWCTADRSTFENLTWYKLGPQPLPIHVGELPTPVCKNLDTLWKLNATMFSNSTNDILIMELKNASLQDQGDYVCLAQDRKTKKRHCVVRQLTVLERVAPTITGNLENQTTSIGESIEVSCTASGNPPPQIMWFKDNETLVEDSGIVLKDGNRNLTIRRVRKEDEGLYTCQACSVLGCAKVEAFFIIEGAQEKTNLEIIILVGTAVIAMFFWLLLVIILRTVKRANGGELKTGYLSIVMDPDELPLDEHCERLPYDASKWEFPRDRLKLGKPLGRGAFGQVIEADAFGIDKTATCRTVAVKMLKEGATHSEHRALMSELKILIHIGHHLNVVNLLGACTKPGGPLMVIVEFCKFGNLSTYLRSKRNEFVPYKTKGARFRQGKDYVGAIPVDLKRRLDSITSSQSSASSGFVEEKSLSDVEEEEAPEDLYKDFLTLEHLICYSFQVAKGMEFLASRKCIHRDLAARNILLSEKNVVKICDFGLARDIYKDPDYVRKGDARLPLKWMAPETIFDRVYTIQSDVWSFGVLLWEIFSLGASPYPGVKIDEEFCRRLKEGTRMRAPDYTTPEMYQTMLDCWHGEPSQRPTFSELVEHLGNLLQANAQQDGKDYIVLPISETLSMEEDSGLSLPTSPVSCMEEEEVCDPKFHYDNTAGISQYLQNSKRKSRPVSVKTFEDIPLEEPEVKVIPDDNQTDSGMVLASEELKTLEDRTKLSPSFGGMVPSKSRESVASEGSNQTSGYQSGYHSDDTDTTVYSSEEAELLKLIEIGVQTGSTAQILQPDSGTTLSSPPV

Consider `N[C@@H](Cc1ccc(N(CCCl)CCCl)cc1)C(=O)O` [Melphalan], for which the IC50 is over 20 µM in data set [1] (basal, DLD-1, read-out: Basal_Viability ATP DLD-1); 15.4 µM in [2] (HCT-116, HCT116 pretreated with GSK3b inhibitor, read-out: GSK3b inh pretreated_Viability ATP HCT116); over 20 µM in data set [5] (HCT-116, basal, HCT116, read-out: Basal_Viability ATP HCT116); over 20 µM in data set [6] (basal, SW480, read-out: Basal_Viability ATP SW480). Further, the EC50 was over 10 µM in data set [3] (NCI-H716, read-out: GLP 1 Secretion); over 10 µM in data set [4] (Rattus norvegicus, INS-1E; read-out: Insulin Secretion); over 10 µM in data set [7] (C2C12, read-out: Wnt Pathway); 5.36 µM in data set [8] (S2 Table, 20 = no response at highest concentration). The “Adjusted Z-Score” value in data set [9] (AE BONE DISORDER) is on record as -3.0915; in data set [9] (AE OSTEOMYELITIS), -3.729; in [9] (AE OSTEONECROSIS OF JAW) it was -3.716; in data set [9] (AE OSTEONECROSIS), -3.771. Further, the “# of Specific AE Occurrence With Drug A With Drug B” value in data set [9] (AE BONE DISORDER) was 0; in data set [9] (AE OSTEOMYELITIS), 9; in data set [9] (AE OSTEONECROSIS OF JAW), 17; in data set [9] (AE OSTEONECROSIS), 1. For the same compound, the “# of Specific AE Occurrence With Drug A Without Drug B” value was 731 in data set [9] (AE BONE DISORDER), 479 in data set [9] (AE OSTEOMYELITIS), 557 in data set [9] (AE OSTEONECROSIS OF JAW) and 786 in data set [9] (AE OSTEONECROSIS).

As to `COCc1c(C(C)C)nc(C(C)C)c(/C=C/[C@@H](O)C[C@@H](O)CC(=O)O)c1-c1ccc(F)cc1` [cerivastatin, reference compound], the IC50 in [1] (setting [24]) amounted to 2.5 µM; in [1] (DLD-1, read-out: Basal_Viability ATP DLD-1) it was 2.51 µM; in [10] (72 h, read-out: RKO viab. IC50), 1 µM; in data set [10] (read-out: Basal_Viability ATP RKO), 1.01 µM; in [2] (setting [25]) it was 0.053 µM; in data set [2] (HCT-116, read-out: GSK3b inh pretreated_Viability ATP HCT116) it was 0.0529 µM. Moreover, the IC50 in data set [12] is over 20 µM; in [14] it was over 20 µM; in data set [15] (COLO 320, 72 h, read-out: Colo320 viab. IC50) it was 1.9 µM; in [15] (COLO 320, read-out: Basal_Viability ATP Colo 320), 1.92 µM; in [16], over 20 µM; in data set [5] (setting [28]), 0.24 µM. For the same compound, the IC50 in [5] (HCT-116, read-out: Basal_Viability ATP HCT116) came to 0.24 µM; in [17] (read-out: Anti-Angio IC50) it was 0.089 µM; in data set [17] (read-out: Anti-Angiogenesis) it was 0.0894 µM; in data set [6] (setting [29]) it was 0.14 µM; in data set [6] (SW480, read-out: Basal_Viability ATP SW480), 0.143 µM; in data set [18] (SNU-C1, 72 h, read-out: SNU-C1 viab. IC50), 1.9 µM. For the same compound, the IC50 is 1.87 µM in [18] (SNU-C1, read-out: Basal_Viability ATP SNU-C1); over 20 µM in [19]; 1.2 µM in [20] (HT-29, 72 h, read-out: HT-29 viab. IC50); 1.21 µM in [20] (HT-29, read-out: Basal_Viability ATP HT-29); over 20 µM in [21]. For the same compound, the “fold potency difference KRAS mutant lines SW480 and HCT116 vs. KRAS wild-type lines Colo320 and SNU-C1” value in data set [11] is listed as 5–10 fold. In addition, the EC50 in data set [3] (setting [26]) is over 10 µM; in [4] (setting [27]) it was over 10 µM; in data set [7] (C2C12, read-out: Wnt pot. EC50) it was 19.9 µM; in [8], over 10 µM. Besides, the “cytotoxicity IC50 relative to IC50 for inhibition of endothelial cord formation” value in [13] is reported as 2–3 fold.

For `CCCNCC(O)COc1ccccc1C(=O)CCc1ccccc1` (stereo not drawn) [propafenone, reference compound], the IC50 in data set [1] (setting [24]) was over 20 µM; in data set [22], 2.2 µM; in [2] (setting [25]) it was over 20 µM; in data set [23] it was 5.4 µM; in data set [5] (setting [28]), over 20 µM; in [17] (read-out: Anti-Angio IC50), over 10 µM. In addition, the IC50 in data set [6] (setting [29]) is over 20 µM. Moreover, the EC50 in [3] (setting [26]) was over 10 µM; in data set [4] (setting [27]), 4.9 µM; in data set [4] (Rattus norvegicus, INS-1E, read-out: Insulin Secretion), 4.92 µM; in data set [8], over 10 µM.
